Laboratory results as given in EP4725507A1, “POLYPEPTIDE CONJUGATE, PHARMACEUTICAL COMPOSITION CONTAINING POLYPEPTIDE CONJUGATE AND USE THEREOF” (Nanjing Anji Biotechnology Co., Ltd., priority 2023, dated 2025).
Peptide text beside a SMILES is read from it. * marks the point of attachment. Paclitaxel(2'-O-succinyl) = CC(=O)O[C@H]1C(=O)[C@@]2(C)[C@H]([C@H](OC(=O)c3ccccc3)[C@]3(O)C[C@H](OC(=O)[C@H](OC(=O)CCC(=O)*)[C@@H](NC(=O)c4ccccc4)c4ccccc4)C(C)=C1C3(C)C)[C@]1(OC(C)=O)CO[C@@H]1C[C@@H]2O

Legend:
[1] = test system: A549 cells; assay: Tumor horizontal migration (scratch test); type: cell-based; details: 48 h
Experimental: A549 cells in the logarithmic growth phase were taken, digested with trypsin to prepare a cell suspension, and 1 mL of the cell suspension was inoculated into a 24-well plate with 3.5×10^5 cells per well. The 24-well plate was incubated in a 37°C, 5% CO2 incubator for 24 h, then a scratch was made vertically along the horizontal line at the bottom of the plate using a 200 µL pipette tip (one scratch per well). The original medium was discarded, and the wells were washed twice with 1 mL PBS. A blank group, a positive drug group, and an administration group were set up. […] The cell migration status was photographed at 0 h and 48 h using a microscope (model: CKX31SF, manufacturer: OLYMPUS CORPORATION) at a magnification of 100×. Meanwhile, ImageJ 1.74V was used for quantitative calculation of the number of migrated tumor cells, and the results were expressed as mean ± SD (n = 3).

[2] = test system: A549 cells; assay: Tumor vertical migration (Transwell chambers); type: cell-based; details: 48 h
Experimental: A549 cells in the logarithmic growth phase were taken, digested with trypsin to prepare a cell suspension, and 100 µL of the cell suspension was inoculated into Transwell chambers with 3.5×10^4 cells per well. A blank group, a positive drug group, and an administration group were set up. […] 600 µL of F-12K medium containing 10% FBS was added to the 24-well plate holding the chambers. After incubation in a 37°C, 5% CO2 incubator for 48 h, the cells were fixed with methanol for 30 min and stained with crystal violet for 10 min. After staining, the cell migration status was photographed under a microscope (model: CKX31SF, manufacturer: OLYMPUS CORPORATION) at a magnification of 100×. Meanwhile, Photoshop 20.0.1 was used for quantitative calculation of the number of migrated tumor cells, and the results were expressed as mean ± SD (n = 3).

[3] = test system: non-small cell lung cancer A549 xenograft tumors; assay: In vivo tumor-inhibitory activity of DOC-AI, A549 xenograft; design: species or system BALB/c nude mice; details: 4 days on, 3 days off until day 21
Experimental: (§1) Non-small cell lung cancer A549 cells and human gastric cancer MKN-45 cells were preserved in F12-K medium containing 10% fetal bovine serum and 1% penicillin + streptomycin, and incubated at 37°C with 5% CO2 and 95% humidity. The aforementioned cells were cultured in T175 flasks with an experimental cell density of 80%. The aforementioned cell lines were mycoplasma-negative. Both A549 cells and MKN-45 cells were provided by Nanjing Anji Biotechnology Co., Ltd.
Non-small cell lung cancer A549 cells in the vigorous growth stage were taken and inoculated subcutaneously into the right axilla of BALB/c nude mice (Nanjing Zhonghua Biotechnology Co., Ltd.) under sterile conditions, with a cell inoculation amount of 1×10^7. The diameter of transplanted tumors in nude mice was measured with a vernier caliper. When the tumors grew to approximately 50 mm^3, 30 tumor-bearing nude mice with good growth status and relatively uniform tumor size were selected and divided into 5 groups, with 6 mice in each group. The administration frequency was continuous administration for 4 days followed by an interval of 3 days, and this cycle was repeated until day 21. The anti-tumor effect in the nude mice was dynamically observed by measuring the tumor diameter. The tumor diameter was measured every other day, and the body weight of the nude mice was weighed simultaneously during the measurement of the tumor diameter. After 21 days of administration, the nude mice were euthanized, the tumor inhibition rate (%) was calculated, and the tumor masses were peeled off and weighed. Table 2 Detection of In Vivo Tumor-Inhibitory Activity of DOC-AI

[4] = test system: gastric cancer MKN45 xenograft tumors; assay: In vivo tumor-inhibitory activity of DOC-AI, MKN45 xenograft; design: species or system BALB/c nude mice; Tumor Weight: unit not given here; details: 6.20 µmol/Kg
Experimental: as §1
Gastric cancer MKN45 cells in the vigorous growth stage were taken and inoculated subcutaneously into the right axilla of BALB/c nude mice (Hangzhou Ziyuan Laboratory Animal Technology Co., Ltd.) under sterile conditions, with a cell inoculation amount of 1×10^7. The diameter of transplanted tumors in nude mice was measured with a vernier caliper. When the tumors grew to approximately 50 mm^3, 18 tumor-bearing nude mice with good growth status and relatively uniform tumor size were selected and divided into 3 groups, with 6 mice in each group. The administration frequency was once every 3 days, and this cycle was repeated until day 21. The anti-tumor effect in the nude mice was dynamically observed by measuring the tumor diameter. The tumor diameter was measured every other day, and the body weight of the nude mice was weighed simultaneously during the measurement of the tumor diameter. After 21 days of administration, the nude mice were euthanized, the tumor inhibition rate (%) was calculated, and the tumor masses were peeled off and weighed. Table 7 Results of Detection of In Vivo Tumor-Inhibitory Activity of DOC-AI

[5] = test system: human gastric cancer cell MKN45 xenograft tumors; assay: In vivo tumor-inhibitory activity of PTX-AI, MKN45 xenograft; design: species or system BALB/c nude mice; details: 21 days; for Final Tumor Volume: in mm³ (unit assumed)
Experimental: as §1
Human gastric cancer cells MKN-45 in the vigorous growth stage were taken and inoculated subcutaneously into the right axilla of BALB/c nude mice under sterile conditions, with a cell inoculation amount of 5×10^6. The diameter of transplanted tumors in nude mice was measured with a vernier caliper. When the tumors grew to approximately 50mm^3, […] tumor-bearing nude mice with good growth status and relatively uniform tumor size were selected, and divided into 6 groups, including 10 mice in the model group and 8 mice in each of the remaining groups. The anti-tumor effect of the test substance was dynamically observed by measuring the tumor diameter. The tumor diameter was measured every other day, and the body weight of the nude mice was weighed simultaneously during the measurement of the tumor diameter. After 21 days of administration, the nude mice were euthanized, the tumor inhibition rate (%) was calculated, and the tumor masses were peeled off and weighed. Table 3 Detection of In Vivo Tumor-Inhibitory Activity of PTX-AI

[6] = MKN45 xenograft, once every 3 days until day 21
[7] = 2.64 µmol/Kg, once every other day
[8] = 4.07 µmol/Kg, once every other day
[9] = 5.28 µmol/Kg, continuous administration for 4 days a week
[10] = 7.92 µmol/Kg, once every other day

CC(=O)O[C@@]12CO[C@@H]1C[C@H](O)[C@@]1(C)C(=O)[C@H](O)C3=C(C)[C@@H](OC(=O)[C@H](OC(=O)CCC(=O)N[C@@H](CCCNC(=N)N)C(=O)N[C@@H](CO)C(=O)N4CCC[C@H]4C(=O)N[C@@H](Cc4ccc(O)cc4)C(=O)N[C@@H](C)C(=O)N[C@@H](CC(N)=O)C(=O)N[C@@H](CO)C(=O)O)[C@@H](NC(=O)OC(C)(C)C)c4ccccc4)C[C@@](O)([C@@H](OC(=O)c4ccccc4)[C@H]21)C3(C)C [DOC-AI]
horizontal migration rate ([1]; 1 nM DOC-AI compared with 100 nM DOC): lower than that of 100 nM DOC
horizontal migration of A549 cells ([1]; 100 nM, 10 nM, 1 nM, compared with the blank group): effectively inhibited the horizontal migration of A549 cells in a concentration-dependent manner
vertical migration rate ([2]; 10 nM DOC-AI compared with 10 nM DOC): lower than that of 10 nM DOC
vertical migration of A549 cells ([2]; 1 µM, 100 nM, 10 nM, 1 nM, compared with the blank group): effectively inhibited the vertical migration of A549 cells in a concentration-dependent manner
effective concentration (vertical migration) ([2]; A549, lowest effective concentration): 1 nM
Final Tumor Volume ([3]; 6.20 µmol/Kg): 73.75±23.01
Tumor Inhibition Rate ([3]; 6.20 µmol/Kg): 90.40%
Tumor Weight ([3]; 6.20 µmol/Kg): 81.00 ± 40.81 mg
Final Tumor Volume ([3]; 12.40 µmol/Kg): 31.31±22.73
Tumor Inhibition Rate ([3]; 12.40 µmol/Kg): 95.33%
Tumor Weight ([3]; 12.40 µmol/Kg): 51.83 ± 31.36 mg
Final Tumor Volume ([3]; 24.80 µmol/Kg): 20.30±20.80
Tumor Inhibition Rate ([3]; 24.80 µmol/Kg): 97.33%
Tumor Weight ([3]; 24.80 µmol/Kg): 20.53 ± 20.80 mg
body weight changes ([4]; MKN45 xenograft nude mice, during the administration period): no significant weight loss was observed
Tumor Inhibition Rate [4, 6]: 84.25±9.15%
Tumor Weight [4, 6]: 204.34±54.48
Final Tumor Volume ([4]; MKN45 xenograft, once every 3 days until day 21, in mm³ (unit assumed)): 191.31±54.48

CC(=O)O[C@H]1C(=O)[C@@]2(C)[C@H]([C@H](OC(=O)c3ccccc3)[C@]3(O)C[C@H](OC(=O)[C@H](OC(=O)CCC(=O)N[C@@H](CCCNC(=N)N)C(=O)N[C@@H](CO)C(=O)N4CCC[C@H]4C(=O)N[C@@H](Cc4ccc(O)cc4)C(=O)N[C@@H](C)C(=O)N[C@@H](CC(N)=O)C(=O)N[C@@H](CO)C(=O)O)[C@@H](NC(=O)c4ccccc4)c4ccccc4)C(C)=C1C3(C)C)[C@]1(OC(C)=O)CO[C@@H]1C[C@@H]2O [PTX-AI] ({Paclitaxel(2'-O-succinyl)}-RSPYANS-OH)
Tumor Inhibition Rate [5, 7]: 36.3%
Tumor Weight [5, 7]: 0.961 ± 0.119 g
Final Tumor Volume [5, 7]: 934.0±125.0
Tumor Inhibition Rate [5, 8]: 42.9%
Tumor Weight [5, 8]: 0.861 ± 0.126 g
Final Tumor Volume [5, 8]: 852.1±137.3
Tumor Inhibition Rate [5, 9]: 53.3%
Tumor Weight [5, 9]: 0.705 ± 0.066 g
Final Tumor Volume [5, 9]: 700.6±59.6
Tumor Inhibition Rate [5, 10]: 60.8%
Tumor Weight [5, 10]: 0.591 ± 0.099 g
Final Tumor Volume [5, 10]: 579.8±91.9
